# Reference: the supplement of paper PMC11451515
# How the values were obtained:
# Experiment in all cases: AUC of viability dose-response curve (% viability x log10 dose units); higher = less sensitive
# Conditions in all cases: 48 h
# P12-Ichikawa = tested on: P12-Ichikawa
# In short: (§1)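 Library compounds in DMSO were applied for 48 h at 37°C at 11 threefold doses (47 μM to 0.79 nM) to medium-adapted leukemia cells in 1536-well plates holding 500 or 1000 cells/well. Luminescence from CellTiter-Glo One was normalised plate by plate against DMSO and cell-free wells. Area under the curve came from trapezoidal integration of a log-logistic fit, after scaling curves that rose above full viability and discarding those that failed quality control. The fit had four parameters and used log10 doses.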
# SEM cells = tested on: SEM cells
# In short: as §1
# NOMO1 = tested on: NOMO1
# In short: as §1
# [1] = RPMI 5 mM glucose + 10% dialyzed FBS
Structure (SMILES),AUC of viability dose-response curve (P12-Ichikawa; HPLM + 10% dialyzed FBS),AUC of viability dose-response curve (P12-Ichikawa; RPMI 5 mM glucose + 10% FBS),AUC of viability dose-response curve (P12-Ichikawa; [1]),AUC of viability dose-response curve (SEM cells; HPLM + 10% dialyzed FBS),AUC of viability dose-response curve (SEM cells; RPMI 5 mM glucose + 10% FBS),AUC of viability dose-response curve (SEM cells; [1]),AUC of viability dose-response curve (NOMO1; HPLM + 10% dialyzed FBS),AUC of viability dose-response curve (NOMO1; RPMI 5 mM glucose + 10% FBS),AUC of viability dose-response curve (NOMO1; [1])
c1ccc(-c2oc3ncnc(NC[C@@H]4CCCO4)c3c2-c2ccccc2)cc1,461,454,455,468,463,467,454,467,454
CC(C)Oc1ccc(C(=O)N[C@H](CNC(=O)CN(C)C)Cc2ccc(-c3cn4cccc([C@H](C)O)c4n3)cc2)cc1Cl,394,348,369,363,346,357,354,331,344
Cc1onc(-c2ccccc2)c1C(=O)N[C@@H]1C(=O)N2[C@@H]1SC(C)(C)[C@@H]2C(=O)[O-].[Na+],440,414,394,,,,379,407,401
C[C@H]1O[C@H](C[C@H](O)[C@@H]1O)O[C@H]2[C@@H](O)C[C@@H](O[C@@H]2C)O[C@H]3[C@@H](O)C[C@@H](O[C@@H]3C)O[C@H]4CC[C@@]5(C)[C@H](CC[C@@H]6[C@@H]5C[C@@H](O)[C@]7(C)[C@H](CC[C@]67O)C/8=C/C(=O)OC8)C4,208,242,227,200,250,239,226,280,253
N=C1N[C@H]2[C@H](CS[C@H]2CCCCC(=O)O)N1,464,464,470,,,,456,473,443
CC[C@]1(O)C[C@@H]2CN(CCc3c([nH]c4ccccc34)[C@@](C(=O)OC)(c3cc4c(cc3OC)N(C)[C@H]3[C@@](O)(C(N)=O)[C@H](O)[C@]5(CC)C=CCN6CC[C@]43[C@@H]65)C2)C1,231,218,263,250,217,258,223,259,278
CO/N=C(\C(=O)N[C@@H]1C(=O)N2C(C(=O)OCOC(=O)C(C)(C)C)=C(/C=C\c3scnc3C)CS[C@H]12)c1csc(N)n1,463,449,451,419,412,453,453,448,398
CC(C)OC1=CC=C2C(=C1)O\C=C(/C2=O)C3=CC=CC=C3,467,465,465,461,460,442,447,435,471
CNC(=O)[C@H](CC/1=C/N=C\2/C=C\C\C=C12)NC(=O)[C@H](CC(C)C)CC(=O)NO,425,423,423,471,462,465,400,413,418
COc1cc(CNC(=O)CCCC/C=C/C(C)C)ccc1O,287,322,305,343,310,329,380,368,399
COc1cc(O)c2c(c1)C(=O)c1cc(C)cc(O)c1C2=O,451,454,446,427,399,414,416,451,446
CC(O)C1C2C(C)\C(=C(/N2C1=O)C(O)=O)SC3CNC(C3)C(=O)N(C)C (stereo not given),432,392,416,395,407,438,416,404,396
CCN(c1ccccc1)c1cc(NC)[n+](C)c(C)n1,469,457,470,464,466,475,456,471,468
CO/N=C(/C(=O)N[C@@H]1C(=O)N2C(C(=O)O)=C(CSC(=O)c3ccco3)CS[C@H]12)c1csc(N)n1,472,464,476,,,,413,453,449
O=C(/C=C/c1ccc(O)cc1)c1ccc(O)cc1O,454,438,420,443,433,417,437,460,452
C[C@@H](O)[C@@H]1NC(=O)[C@H](CCCCN)NC(=O)[C@@H](Cc2c[nH]c3ccccc23)NC(=O)[C@H](Cc2ccccc2)NC(=O)[C@@H](NC(=O)[C@H](N)Cc2ccccc2)CSSC[C@@H](C(=O)N[C@H](CO)[C@@H](C)O)NC1=O,438,395,391,422,404,380,,,
Cc1c(C)c2c(c(C)c1O)CCC(C)(COc1ccc(CC3SC(=O)NC3=O)cc1)O2 (stereo not given),477,477,462,467,462,471,466,466,454
CNC(=O)Nc1ccc(-c2nc(N3CC4CCC(C3)O4)c3cnn(C4CCC5(CC4)OCCO5)c3n2)cc1,389,324,336,,,,359,367,338

Structure (SMILES),AUC of viability dose-response curve (P12-Ichikawa; HPLM + 10% dialyzed FBS),AUC of viability dose-response curve (P12-Ichikawa; RPMI 5 mM glucose + 10% FBS),AUC of viability dose-response curve (P12-Ichikawa; [1]),AUC of viability dose-response curve (SEM cells; HPLM + 10% dialyzed FBS),AUC of viability dose-response curve (SEM cells; RPMI 5 mM glucose + 10% FBS),AUC of viability dose-response curve (SEM cells; [1]),AUC of viability dose-response curve (NOMO1; HPLM + 10% dialyzed FBS),AUC of viability dose-response curve (NOMO1; RPMI 5 mM glucose + 10% FBS),AUC of viability dose-response curve (NOMO1; [1])
CN(C)C1=C(Br)C=C(C=C1)C\2NC3=C(\C4=C2C(=O)CC(C)(C)C4)C5=CC=CC=C5C=C3 (stereo not given),466,447,459,471,465,470,,,
Cc1noc(-c2ccc(CSCCC(=O)O)cc2)c1NC(=O)OC(C)c1ccccc1Cl (stereo not given),464,428,437,453,433,471,468,457,432
C[C@]12CC[C@H]3[C@@H](CCC/4=C/C(=O)CC[C@]34C)[C@@H]1CC[C@@H]2OC(=O)CCC5CCCC5,448,459,466,452,463,462,461,471,464
NC(=O)NO,401,393,367,326,362,332,359,340,347
Cc1c[nH]c(-c2cnc(NCCNc3ccc(C#N)cn3)nc2-c2ccc(Cl)cc2Cl)n1,397,366,379,,,,398,381,396
OCCC#Cc1nc(-c2ccc(F)cc2)c(-c2ccncc2)n1CCCc1ccccc1,476,467,468,475,467,456,463,465,472
CON(C)C(=O)N1/N=C(S[C@@]1(CCCN)C2=CC=CC=C2)/C3=CC(=CC=C3F)F,183,177,206,162,171,193,242,211,226
CC(C)(O)/C=C\C(=O)[C@](C)(O)[C@H]1[C@H](O)C[C@]2(C)[C@@H]3CC=C4[C@@H](C=C(O)C(=O)C4(C)C)[C@]3(C)C(=O)C[C@@]12C,269,251,259,234,209,221,272,273,268
COC1=CC=C2CN(C)CC[C@@]34\C=C/[C@H](O)C[C@@H]3OC1=C24,449,456,454,,,,437,468,451
NC(=O)Nc1cc(-c2cccc(F)c2)sc1C(=O)N[C@H]1CCCNC1,345,325,330,188,196,169,314,335,324
COC1=CC=C(C=C1O)C/2=C/C(=O)C3=C(O2)C=C(O[C@@H]4O[C@H](CO[C@@H]5O[C@@H](C)[C@H](O)[C@@H](O)[C@H]5O)[C@@H](O)[C@H](O)[C@H]4O)C=C3O,461,463,470,461,453,466,456,460,477
CC(C)Cc1ccc(C(C)C(=O)O)cc1 (stereo not given),442,408,410,371,396,425,,,
Nc1nc(Cl)nc2c1ncn2[C@@H]1O[C@H](CO)[C@@H](O)[C@@H]1F,83.1,75.7,115,68,55.4,55.4,,,
CC(C)(O)c1cc2nc(-c3cnc(N)nc3)nc(N3CCOCC3)c2s1,406,361,363,,,,343,402,334
Cc1ncc([N+](=O)[O-])n1CC(C)O (stereo not given),467,462,463,,,,467,465,459
C[C@@]1(C(=O)Nc2ccc(F)nc2)CCCN1c1nc(Nc2cc(C3CC3)[nH]n2)c2cccn2n1,374,380,393,,,,369,417,392
O.O.CCN1CCN(C(=O)N[C@H](C(=O)N[C@H]2[C@@H]3SC\C(=C(/N3C2=O)C(O)=O)CSC4=NN=N[N]4C)C5=CC=C(O)C=C5)C(=O)C1=O,,,,422,425,413,,,
